SMILES strings stand for the structures.

Experiment [1] has as its system C/EBPα. In words: Immunoblotting, C/EBPα protein in 3T3-L1. The format is cell-based, mouse. The conditions noted are these: 8 days. As to the method: Immunoblotting: Protein expression of SREBP-1, PPARγ, and C/EBPα relative to […] was assessed by Western Blot. Total proteins were isolated from 3T3-L1 cells treated with compounds or vehicles for 8 days. The cells were washed twice with PBS, lysed in a HEPES-Tx-PI buffer ([…], 5 mM EDTA, 350 mM Sucrose, 1 μg/ml leupeptin, 1 μg/ml pepstatin, 1% Triton-X, 1 mM PMSF), processed with 25G needles and centrifuged at 12,000 rpm for 5 min. Protein concentration was determined using the Micro BCA Protein Assay Kit (Fisher Scientific, Pittsburgh, Pa., USA) following the manufacturers instructions. 25 μg proteins were loaded and separated by electrophoresis using the BioRad Electrophoretic System (65 V for 7 hour). The proteins were then transferred to nitrocellulose membranes at 40 V overnight. The membrane was blocked for 1 hour at room temperature in 5% nonfat milk in Tris-buffered saline (TBS), then washed with Tween-20-TBS (TTBS, 0.1% Tween-20) three times (15 min, 5 min, 5 min), followed by incubation with primary antibodies SREBP-1 (dilution 1:200), PPARγ (dilution 1:200), C/EBPα (dilution 1:200) (all purchased from Santa Cruz Biotechnology, Santa Cruz, Calif., USA) and […] (dilution 1:1000, Sigma-Aldrich, St. Louis, Mo., USA) at room temperature for 2 hours. […]

A short description of experiment [2]: Food intake, high-fat diet and normal diet mice. The experiment is classed as in vivo, mouse. The source says: Six mice per subgroup were obtained finally.
Experiment [3] relates to GATA-2. Put plainly: Immunoblot, GATA-2 protein in epididymal fat of FD mice. The conditions noted are these: berberine treatment. The experiment is classed as in vivo, mouse. As to the method: (§1) RNA and protein purification and quantification from epididymal fat tissues: RNA and protein was isolated from 60 mg of epididymal fat tissues with Trizol (Invitrogen, Carlsbad, Calif., USA) following the protocol recommended by the manufacturers. RNA was dissolved in pure water and quantified at 260/280 nm, and sample integrity was checked by 1.5% agarose gel electrophoresis. Protein concentration was determined using the Micro BCA Protein Assay Kit (Fisher Scientific, Pittsburgh, Pa., USA) according to the manufacturer's instructions.
Immunoblot Analysis: Protein expression of GATA-2, GATA-3, PPARγ and C/EBPα in the control of β-actin was assessed by Western Blot. Protein samples from the same group were homogenized as previously reported (Hu and Davies, Phytomedicine (2009) 16:864-873). Protein (25 μg) was separated by polyacrylamide gel electrophoresis using the BioRad Electrophoretic System (60 V for 1 h followed by 90 V for 5 h). The proteins were then transferred to nitrocellulose membranes at 35 V overnight. […]
(In general: In western blotting, separated proteins are transferred to a membrane and probed.)

In another experiment the test system is GATA-3. Put plainly: Immunoblot, GATA-3 protein in epididymal fat of FD mice. The format is in vivo, mouse. On the procedure:
as §1
Immunoblot Analysis: Protein expression of GATA-2, GATA-3, PPARγ and C/EBPα in the control of β-actin was assessed by Western Blot. Protein samples from the same group were homogenized as previously reported (Hu and Davies, Phytomedicine (2009) 16:864-873). Protein (25 μg) was separated by polyacrylamide gel electrophoresis using the BioRad Electrophoretic System (60 V for 1 h followed by 90 V for 5 h). The proteins were then transferred to nitrocellulose membranes at 35 V overnight. The membrane was blocked for 1 h at room temperature in 5% nonfat milk in Tris-buffered saline (TBS), then washed with Tween-20-TBS (TTBS, 0.1% Tween-20) three times (15 min, 5 min, 5 min), followed by incubation with primary antibodies mouse GATA-2, GATA-3 (dilution 1:200), PPARγ, C/EBPα and β-actin (dilution 1:500) at room temperature for 2 h (all antibodies were purchased from Santa Cruz Biotechnology, Santa Cruz, Calif., USA). The membrane was rinsed three times (15 min, 5 min, 5 min), then incubated at room temperature for 1 h with horseradish peroxidase-conjugated second antibody (1:10,000). The membrane was then incubated in ECL reagent (GE Healthcare, Piscataway, N.J., USA) for 1 min. Protein was visualized using the UVP image analysis system (UVP, Upland, Calif., USA).

The test system of experiment [4] is C/EBPα. Put plainly: Real-time RT-PCR, C/EBPα mRNA in 3T3-L1. The experiment is classed as cell-based, mouse. The settings on record: 8 days. The source says: Realtime RT-PCR: Real-time reverse transcriptase polymerase chain reaction (RT-PCR) analysis was used to measure mRNA expression of genes SREBP-1, PPARγ, C/EBPα, low density lipoprotein receptor (LDLR), Adiponectin, and fatty acid synthase (FAS) under the control of β-actin. Briefly, total RNA was isolated from 3T3-L1 cells following treatment for 8 days with Trizol reagent (Invitrogen, Carlsbad, Calif., USA) according to the manufacturer's instruction. RNA was quantified using absorption of light at 260 nm, and sample purity was checked by OD 260 nm/280 nm. 0.8 μg of total RNA from each sample was used for reverse transcription reaction using the TaqMan Reverse Transcription Reagents (Applied Biosystems, Foster City, Calif., USA) according to the manufacturers' instructions. PCR was done using the SYBR green Master Mix (Applied Biosystems, Foster City, Calif., USA) according to the manufacturers' instructions. The temperature cycling conditions of amplification were as follows: an initial step of denaturation at 95° C. for 10 min, 40 cycles of denaturation at 95° C. for 30 s, annealing at 55° C. for 30 s, and elongation at 72° C. for 30 s. Realtime RT-PCR was performed using Mx3000P Realtime Thermocyclers (Statagene, La Jolla, Calif., USA). The relative mRNA levels of these genes were calculated by 2-delta delta CT method and normalized with control groups.

In experiment [5] the test system is GATA-2. In words: Real-Time RT-PCR, GATA-2 mRNA in epididymal fat of FD mice. The experiment is classed as in vivo, mouse. As to the method: as §1
Quantitative Real-Time RT-PCR: Real-Time reverse transcriptase polymerase chain reaction (RT-PCR) analysis was used to measure mRNA expression of genes PPARγ, C/EBPα, GATA-2 and GATA-3 in the control of β-actin. Total RNA (0.8 μg) from each sample was used for a reverse transcription reaction using the TaqMan Reverse Transcription Reagents (Applied Biosystems, Foster City, Calif., USA) following the manufacturer's instructions. PCR was done using the SYBR green Master Mix (Applied Biosystems, Foster City, Calif., USA) following the manufacturer's instructions. The cycling conditions of amplification were as follows: an initial step of denaturation at 95° C. for 10 min, 40 cycles of denaturation at 95° C. for 30 s, annealing at 55° C. for 30 s, and elongation at 72° C. for 30 s. Real-Time PCR was performed using Mx3000P Real-Time Thermocyclers (Stratagene, La Jolla, Calif., USA). The relative mRNA levels of these genes were calculated by 2-delta delta CT method and normalized with control-treated groups.
In general terms: In qPCR the cycle at which signal appears reflects the starting amount.

[6] abbreviates: 8 μM berberine + 15 μM clozapine.
The mark [7] stands for this setting: 8 μM berberine + 50 μM risperidone.

Take `COc1ccc2cc3[n+](cc2c1OC)CCc1cc2c(cc1-3)OCO2.[Cl-]` [berberine, Berberine (Chloride Form)]: in the experiment with C/EBPα [1] (setting [6]), the “decrease of C/EBPα protein expression vs clozapine treated group” value amounted to 73%. The “decrease of C/EBPα protein expression vs risperidone treated group” value in the experiment with C/EBPα [1] (setting [7]) is reported as 68%. The food intake in experiment [2] (FD mice, 0.75 mg/kg/day, 36 days (control 3.5±0.4)) is 3.0±0.3 g/mouse/day; in experiment [2] (FD mice, 1.5 mg/kg/day, 36 days), 2.7±0.5 g/mouse/day; in experiment [2] (FD mice, 3 mg/kg/day, 36 days) it was 2.5±0.2 g/mouse/day; in experiment [2] (ND mice, 3 mg/kg/day, 36 days (control 3.8±0.7)), 3.3±0.5 g/mouse/day. In addition, the “quantitative protein expression of GATA-2” value with GATA-2 [3] was “did not appear to be significantly changed”. Moreover, the “GATA-3 protein expression increased to” value in the experiment with GATA-3 (0.75 mg/kg/day) was 2.2 fold; in the experiment with GATA-3 (1.5 mg/kg/day), 2.5 fold; with GATA-3 (3 mg/kg/day), 6.9 fold. Moreover, the “decrease of C/EBPα mRNA expression vs clozapine treated group” value with C/EBPα [4] (setting [6]) turned out to be 94.7%. The “decrease of C/EBPα mRNA expression vs risperidone treated group” value in the experiment on C/EBPα [4] (setting [7]) is given as 96.4%. For the same molecule, the “GATA-2 mRNA expression increased to” value in the experiment with GATA-2 [5] (0.75 mg/kg/day) is 2.7 fold; in the experiment on GATA-2 [5] (1.5 mg/kg/day), 3.4 fold; in the experiment on GATA-2 [5] (3 mg/kg/day), 3.7 fold.

The values are drawn from patent publication US20110281852A1 (priority 2010, published 2011).
